Source: US7005429B2, “Method of treating estrogen receptor positive carcinoma with 17 α-dihydroequilin” (Wyeth, priority 1991, dated 2006)
Structures can show the parent of a compound that is named as a salt.

Legend:
[1] = test system: DMBA induced mammary carcinoma; test: DMBA induced mammary carcinoma in rats, tumor size; assay type: in vivo, Sprague-Dawley female rats; conditions: rat
Description: Rats were treated either with vehicle (control), 17α-dihydroequilin sulfate, or tamoxifen. In addition, one group of rats were ovariectomized after tumor development and then treated with vehicle. The animals were treated for a 4 week period. Tumor volumes were measured weekly.

[2] = test system: MDA-231 (estrogen receptor negative) human breast cancer cell line; test: Cell cycle phase distribution by flow cytometric DNA analysis in MDA-231 cells; assay type: cell-based; conditions: for % G1 / % G2/M / % S: 24 hours
Description: (§1) In the in vitro standard pharmacological test procedure, 17α-dihydroequilin was evaluated as a representative compound in MCF-7 (estrogen receptor positive) and […] (estrogen receptor negative) human breast cancer cell lines to determine the effect of the compounds of this invention on cell proliferation as measured by the percent of the cells present in the G1, S, and G2/M phases of the cell cycle. Briefly, the cell lines were plated in T-25 tissue culture flasks at an initial density of between 50,000 and 100,000 cells/flask and incubated for a period of 24 hours in phenol-red free IMEM medium supplemented with dextran-coated-charcoal stripped fetal bovine serum (10%), glutamine (5 mg/mL) and gentamycin sulfate (2 mg/mL).

[3] = test system: MCF-7 (estrogen receptor positive) human breast cancer cell line; test: Cell cycle phase distribution by flow cytometric DNA analysis in MCF-7 cells; assay type: cell-based; conditions: for shift of cells from the resting G1 phase to the proliferative S phase (estrogenic activity): compound alone, 0.1 μM; for prevention of E2 induced proliferation (shift from G1 to S phase): in combination with E2; for % G1 / % G2/M / % S: 24 hours
Description: as §1

[4] = test system: estrogen receptor positive MCF-7 human breast cancer cells; conditions: prevents cells from entering the S phase; cited from earlier work
[5] = rat; 200 μg/day for 3 weeks; cited from earlier work
[6] = test compound (0.1 nM) in combination with E2 (1 nM)

## C[C@]12CC[C@H]3C(=CCc4cc(OS(=O)(=O)O)ccc43)[C@@H]1CC[C@H]2O [17α-DHEQ-S, 17α-Dihydroequilin sulfate]
[1]; daily dose 0.5 mg/kg
  percent change of tumor size from week 0, Week 1: 47.2%
  percent change of tumor size from week 0, Week 2: 75.9%
  percent change of tumor size from week 0, Week 3: 59.4%
  percent change of tumor size from week 0, Week 4: 111.6%
[1]; daily dose 5.0 mg/kg
  percent change of tumor size from week 0, Week 1: −18.2%
  percent change of tumor size from week 0, Week 2: −21.2%
  percent change of tumor size from week 0, Week 3: −8.2%
  percent change of tumor size from week 0, Week 4: 3.1%
[1]; daily dose 25.0 mg/kg
  percent change of tumor size from week 0, Week 1: −49.7%
  percent change of tumor size from week 0, Week 3: −51.2%
  percent change of tumor size from week 0, Week 4: −46.7%

## C[C@]12CC[C@H]3C(=CCc4cc(O)ccc43)[C@@H]1CC[C@H]2O [17α-dihydroequilin]
[2]; [6]
  % G1: 26%
  % G2/M: 13%
  % S: 60%
[3]
  shift of cells from the resting G1 phase to the proliferative S phase (estrogenic activity): did not cause a shift of cells from the resting G1 phase to the proliferative S phase
  prevention of E2 induced proliferation (shift from G1 to S phase): prevented the E2 induced proliferation
[3]; [6]
  % G1: 42%
  % G2/M: 15%
  % S: 42%

## C[C@]12CC[C@@H]3c4ccc(O)cc4CC[C@H]3[C@@H]1CC[C@@H]2O [E2, 17β-estradiol]
[2]; E2 alone
  shift of cells from the G1 phase to the S phase (cell proliferation): this shift was not observed
  % G1: 38%
  % G2/M: 17%
  % S: 45%
[3]; E2 alone
  shift of cells from the G1 phase to the S phase (cell proliferation): caused cell proliferation
  % G1: 29%
  % G2/M: 5%
  % S: 66%

## CC/C(=C(\c1ccccc1)c1ccc(OCCN(C)C)cc1)c1ccccc1 [Tamoxifen, Z-1-(4β-dimethylaminoethoxyphenyl) 1,2-diphenyl but-1-ene citratel]
[1]; 4 week treatment
  reduction in tumor size (in words): caused a reduction in tumor size
[1]; daily dose 2.0 mg/kg
  percent change of tumor size from week 0, Week 2: −18.7%
  percent change of tumor size from week 0, Week 3: −28.5%
  percent change of tumor size from week 0, Week 4: −20.1%
[2]; [6]
  % G1: 28%
  % G2/M: 14%
  % S: 58%
[3]
  shift of cells from the resting G1 phase to the proliferative S phase (estrogenic activity): A similar result was observed
  prevention of E2 induced proliferation (shift from G1 to S phase): A similar result was obtained
[3]; [6]
  % G1: 40%
  % G2/M: 14%
  % S: 46%
[4]
  inhibition of E2 stimulated cell growth: inhibit cell E2 stimulated cell growth
[5]
  accumulation of administered [3H]-E2 in tissue: prevents the accumulation of administered [^3H]-E2 in uterine, vaginal, and mammary tumor tissue
